Source: US9539237B2, “Compositions and methods for drug-sensitization or inhibition of a cancer cell” (The Texas A&M University System, priority 2012, dated 2017)

What was measured:
[1] = test system: CHOP-resistant G3 NHL cells; experiment: Cell growth assay (resazurin fluorescence) on G3 cells; type: cell-based, human; details: for Magnitude of potentiation in combination with doxorubicin: G3; for Fold increase in potency over DOX alone: lymphoma cell line G3
Method: Compositions were tested on CHOP-resistant G3 NHL cells that had been cultivated in RPMI medium for five days. Prior to assay, the cells were counted by haemocytometer and cell concentration standardized to 625,000 cells/ml. Test drugs were solubilized in 100% DMSO and then diluted to final assay concentration with 0.1M phosphate buffered saline (PBS) and a final DMSO concentration of 0.5%. […] The metabolic dye rezasurin was added to the wells of the assay plate at a final concentration of 20 μg/ml and the plates were incubated for an additional 24 hours. The plates were then read in a BMG Polarstar plate reader at wavelength (573-605) and the data plotted as OD versus increasing dilutions (i.e., decreasing total amounts) of rifabutin derivative concentration.
(§1) In these experiments, the following cell lines were used: CHOP-resistant NHL cell line G3, CHOP-sensitive NHL cell line CRL2631, the multi-drug resistant sarcoma cell line MES-SA-Dx5; multi-drug-resistant breast cancer cell line MDA-MB-231, multi-drug resistant ovarian carcinoma cell line SK-OV3, multi-drug resistant ovarian cancer cell line NCI/ADR-RES, drug-sensitive ovarian cancer cell line OVCAR-5, and multi-drug resistant ovarian cancer cell line OVCAR-3. […]

[2] = test system: multi-drug resistant ovarian carcinoma cell line SK-OV3; experiment: Cell growth assay on SK-OV3 cells; type: cell-based, human
Excerpt: as §1

[3] = test system: multi-drug resistant ovarian cancer cell line OVCAR-3; experiment: Cell growth assay on OVCAR-3 cells; type: cell-based
Excerpt: In these experiments, the following cell lines were used: CHOP-resistant NHL cell line G3, CHOP-sensitive NHL cell line CRL2631, the multi-drug resistant sarcoma cell line MES-SA-Dx5; multi-drug-resistant breast cancer cell line MDA-MB-231, multi-drug resistant ovarian carcinoma cell line SK-OV3, multi-drug resistant ovarian cancer cell line NCI/ADR-RES, drug-sensitive ovarian cancer cell line OVCAR-5, and multi-drug resistant ovarian cancer cell line OVCAR-3.
Additional cell lines used include: ovarian cancer OVCAR-8. T lymphoblastoid leukemia MOLT-4, dexamethasone-resistant multiple myeloma MM.1R, myeloid leukemia cells HL-60, osteosarcoma cells U-2 OS, and myeloma RPMI 8226.

total intracellular ROS = experiment: Intracellular ROS by CellROX staining and flow cytometry; type: cell-based
Excerpt: Cells were then stained with the fluorescent ROS indicator, CellROX, and subjected to flow cytometry to quantitate total intracellular ROS.
The electron transport chain (ETC) is known to be a primary generator of ROS in the cell. Most of the ROS is generated by Complexes I and III of the ETC. Inhibition of Complex I results in electrons piling up and leaking to react with oxygen to produce ROS.
MDR/P-gp activity is closely associated with calcium status in the cell, so calcium modulators were tested for effects on ROS. […] Relatively Dox-sensitive lymphoma (CRL2631, 10S, WSU) and ovarian carcinoma (OVCAR8) and more Dox-resistant lymphoma (G3R, 10R, WSUR) and ovarian carcinoma (ADR) were treated with 10 uM […] for 2 hrs. […] Cells were co-stained with the cell-permeable red fluorescent ROS indicator, CellROX, and cell-permeable green fluorescent calcium indicator. Fluo-4AM, and then subjected to flow cytometry to quantitate changes in ROS and calcium levels.
All samples were analyzed at the same time in flow cytometry.

[4] = Dox-resistant G3 lymphoma cells, FIG. 40

“4-deoxy-3,4[2-spiro-[1-(isobutylaminocarbonyl)-piperidin-4-yl]]-(1H)-imidazo-(2,5-dihydro)rifamycin S [RTI-102]” was tested, and the “Magnitude of potentiation in combination with doxorubicin” value (from here on “Magnitude of potentiation”) [1] was “++ (++ potentiation between 2.1 to 5 fold increase)” and the “Magnitude of potentiation” value [2] was “+++ (+++ potentiation greater than 5 fold increase)”.

In the case of “4-deoxy-3,4[2-spiro-[1-(n-propyloxycarbonyl)-piperidin-4-yl]]-(1H)-imidazo-(2,5-dihydro)rifamycin S [RTI-78]”, the “Fold increase in potency over DOX alone” value [1] is reported as 29.5 fold.

For “11-deoxy-11-amino-4-deoxy-3,4[2-spiro-[1-(isobutylaminocarbonyl)-piperidin-4-yl]]-(1H)-imidazo-(2,5-dihydro)rifamycin S [RTI-183]”, the “Fold increase in potency over DOX alone” value [1] was 0.5 fold and the “Magnitude of potentiation” value [3] was “+ (+ potentiation between 1.2 to 2.0 fold increase)”.

For “11-deoxy-11-imino-4-deoxy-3,4[2-spiro-[1-(2-methoxyethyl)-piperidin-4-yl]]-(1H)-imidazo-(2,5-dihydro)rifamycin S [RTI-51]”, the “Fold increase in potency over DOX alone” value [1] was 0.7 fold, the “Magnitude of potentiation” value [2] was “+ (+ potentiation between 1.2 to 2.0 fold increase)” and the “Magnitude of potentiation” value [3] was “+ (+ potentiation between 1.2 to 2.0 fold increase)”.

In the case of “11-deoxy-11-imino-4-deoxy-3,4[2-spiro-[1-(2-morpholinoethyl)-piperidin-4-yl]]-(1H)-imidazo-(2,5-dihydro)rifamycin S [RTI-53]”, the “Fold increase in potency over DOX alone” value [1] is reported as 0.2 fold, the “Magnitude of potentiation” value [2] is reported as “+ (+ potentiation between 1.2 to 2.0 fold increase)” and the “Magnitude of potentiation” value [3] is reported as “+ (+ potentiation between 1.2 to 2.0 fold increase)”.

`O=c1[nH]c2ccccc2n1C1CCN(Cc2ccc(-c3nc4cc5[nH]cnc5cc4nc3-c3ccccc3)cc2)CC1` [Akt Inhibitor VIII, reference compound] was tested, and the “Reversal of CHOP resistance” value ([1]; G3 cells, FIG. 30B) was “dose-dependent reversal of CHOP resistance”.

With `CC(=O)OCOC(=O)CN(CC(=O)OCOC(C)=O)c1ccccc1OCCOc1ccccc1N(CC(=O)OCOC(C)=O)CC(=O)OCOC(C)=O` [BAPTA-AM] the “Induction of ROS” value (total intracellular ROS; [4]) was “induced ROS”.

With `COC1C=COC2(C)Oc3c(C)c(O)c4c(c3C2N)C2=NC3(CCN(CC(C)C)CC3)NC2=C(NC(=O)C(C)=CC=CC(C)C(O)C(C)C(O)C(C)C(OC(C)=O)C1C)C4=O` (stereo not drawn) [RTI-181, 11-deoxy-11-amino-4-deoxy-3,4[2-spiro-[1-(2-methylpropyl)-piperidin-4-yl]]-(1H)-imidazo-(2,5-dihydro)rifamycin S] the “Magnitude of potentiation” value [1] was “+++ (+++ potentiation greater than 5 fold increase)”, the “Fold increase in potency over DOX alone” value [1] was 5.5 fold and the “Magnitude of potentiation” value [2] was “+++ (+++ potentiation greater than 5 fold increase)”. For the same compound, the “Magnitude of potentiation” value [3] was “+ (+ potentiation between 1.2 to 2.0 fold increase)”.

`C=C(C)[C@H]1Cc2c(ccc3c2O[C@@H]2COc4cc(OC)c(OC)cc4[C@@H]2C3=O)O1` [Rotenone] was tested, and the “Induction of ROS” value (total intracellular ROS; [4]) was “induced ROS”.

With `COC(=O)[C@H]1[C@H]2C[C@@H]3c4[nH]c5cc(OC)ccc5c4CCN3C[C@H]2C[C@@H](OC(=O)c2cc(OC)c(OC)c(OC)c2)[C@@H]1OC` [reserpine] the “Induction of ROS relative to control drugs” value (total intracellular ROS; ADR and OVCAR8 cells, FIG. 41A) was “induced ROS” and the “Induction of ROS” value (total intracellular ROS; OVCAR8, ADR-RES and G3 cells, 2 hrs, 10 uM, FIG. 38) was “induced ROS”.

In the case of antimycin A, the “Induction of ROS” value (total intracellular ROS; [4]) is reported as “not”.
